pEC50, pIC50: −log10 of the molar value.
Assays:
[1] = test system: TNFα production in LPS-stimulated human monocytes; test: Cot Monocyte TNFα Cell Based Assay; settings: Homo sapiens, Monocyte, TNFα in LPS-stimulated human monocytes; read-out: EC50 TNF
Method in brief: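 TR-FRET read-out of total secreted TNFα, normalized as % control (unstimulated = 0%, LPS-stimulated = 100%). Cells (5,000/well) were exposed to compound 1 h at 37 °C, then to 50 pg/ml LPS for a further 4 h.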

[2] = target: T1, human Cot catalytic domain (30-397 amino acids) (Homo sapiens, UniProt P41279); test: High Throughput Cot Biochemical Assay (KinEASE TR-FRET); settings: Cot biochemical HTRF (KinEASE TR-FRET) assay; read-out: IC50 HTRF
T1 construct: Purified recombinant human Cot catalytic domain (30-397 amino acids) was purchased from Cama Biosciences; purchased Cama Biosciences (so in the source)
T1 sequence (P41279 30-397): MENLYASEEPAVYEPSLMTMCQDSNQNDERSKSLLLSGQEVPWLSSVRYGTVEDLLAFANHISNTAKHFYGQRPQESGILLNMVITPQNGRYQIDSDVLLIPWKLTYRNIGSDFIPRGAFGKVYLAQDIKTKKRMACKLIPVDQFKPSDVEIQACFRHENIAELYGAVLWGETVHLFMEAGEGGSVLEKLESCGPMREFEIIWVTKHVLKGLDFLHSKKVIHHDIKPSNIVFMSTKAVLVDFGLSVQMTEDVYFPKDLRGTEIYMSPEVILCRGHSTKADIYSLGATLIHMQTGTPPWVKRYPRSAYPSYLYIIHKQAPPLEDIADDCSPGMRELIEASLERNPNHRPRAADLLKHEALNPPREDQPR
Method in brief: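 TR-FRET readout: Eu-labeled phospho-specific antibody binds XL665-tagged STK3 peptide after phosphorylation by Cot (aa 30-397, 5 nM). Conditions: 400 μM ATP, 1 μM peptide, MOPS pH 7.0 buffer with MgOAc, DTT, BSA, NP-40, glycerol; 0.1% DMSO.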

| SMILES | pEC50 [1] | pIC50 [2] |
| --- | --- | --- |
| CC(C)n1cc([C@@H](Nc2cc(Cl)c3ncc(C#N)c(N[C@H](C)c4ccccc4)c3c2)c2cccc(C(=O)N(C)C)c2)nn1 [Example 579, 3-((S)-((8-chloro-3-cyano-4-(((R)-1-phenylethyl)amino)quinolin-6-yl)amino)(1-isopropyl-1H-1,2,3-triazol-4-yl)methyl)-N,N-dimethylbenzamide] | 6.15 | 8.10 |
| CC(C)(C)N1CCC(n2cc([C@@H](Nc3cc(Cl)c4ncc(C#N)c(NN5CCOCC5)c4c3)c3ccccc3)nn2)CC1 [Example 580, (S)-6-(((1-(1-(tert-butyl)piperidin-4-yl)-1H-1,2,3-triazol-4-yl)(phenyl)methyl)amino)-8-chloro-4-(morpholinoamino)quinoline-3-carbonitrile] | 5.80 | 6.54 |
| CC(C)(C)N1CCC(n2cc([C@@H](Nc3cc(Cl)c4ncc(C#N)c(N[C@H]5CCc6ccccc65)c4c3)c3ccccc3)nn2)CC1 [Example 581, 6-(((S)-(1-(1-(tert-butyl)piperidin-4-yl)-1H-1,2,3-triazol-4-yl)(phenyl)methyl)amino)-8-chloro-4-(((S)-2,3-dihydro-1H-inden-1-yl)amino)quinoline-3-carbonitrile] | 5.37 | 6.48 |
| CC(C)(C)N1CCC(n2cc([C@@H](Nc3cc(Cl)c4ncc(C#N)c(N[C@@H]5CCc6ccccc65)c4c3)c3ccccc3)nn2)CC1 [Example 583, 6-(((S)-(1-(1-(tert-butyl)piperidin-4-yl)-1H-1,2,3-triazol-4-yl)(phenyl)methyl)amino)-8-chloro-4-(((R)-2,3-dihydro-1H-inden-1-yl)amino)quinoline-3-carbonitrile] | 5.36 | 6.00 |
| CC(C)(C)N1CCC(n2cc([C@@H](Nc3cc(Cl)c4ncc(C#N)c(Nc5cnc(F)c(F)c5)c4c3)c3ccccc3)nn2)CC1 [Example 584, (S)-6-(((1-(1-(tert-butyl)piperidin-4-yl)-1H-1,2,3-triazol-4-yl)(phenyl)methyl)amino)-8-chloro-4-((5,6-difluoropyridin-3-yl)amino)quinoline-3-carbonitrile] | 6.39 | 8.00 |
| Cc1ccccc1[C@@H](C)Nc1c(C#N)cnc2c(Cl)cc(N[C@@H](c3ccccc3)c3cn(C4CCN(C(C)(C)C)CC4)nn3)cc12 [Example 585, 6-(((S)-(1-(1-(tert-butyl)piperidin-4-yl)-1H-1,2,3-triazol-4-yl)(phenyl)methyl)amino)-8-chloro-4-(((R)-1-(o-tolyl)ethyl)amino)quinoline-3-carbonitrile] | 6.37 | 7.80 |
| CC[C@H](C)Nc1c(C#N)cnc2c(Cl)cc(N[C@@H](c3ccccc3)c3cn(C(C)C)nn3)cc12 [Example 586, 4-(((S)-sec-butyl)amino)-8-chloro-6-(((S)-(1-isopropyl-1H-1,2,3-triazol-4-yl)(phenyl)methyl)amino) quinoline-3-carbonitrile] | 5.07 | 6.05 |
| CC[C@H](C)Nc1c(C#N)cnc2c(Cl)cc(N[C@@H](c3ccccc3)c3cn(C4CCN(C(C)(C)C)CC4)nn3)cc12 [Example 587, 4-(((S)-sec-butyl)amino)-6-(((S)-(1-(1-(tert-butyl)piperidin-4-yl)-1H-1,2,3-triazol-4-yl)(phenyl)methyl)amino)-8-chloroquinoline-3-carbonitrile] | 5.41 | 6.84 |
| CC(C)n1cc([C@@H](Nc2cc(Cl)c3ncc(C#N)c(N[C@H](C)c4ccccc4)c3c2)c2ccccc2)nn1 [Example 588, 8-chloro-6-(((S)-(1-isopropyl-1H-1,2,3-triazol-4-yl)(phenyl)methyl)amino)-4-(((R)-1-phenylethyl)amino) quinoline-3-carbonitrile] | 5.99 | 7.77 |
| CC[C@@H](C)Nc1c(C#N)cnc2c(Cl)cc(N[C@@H](c3ccccc3)c3cn(C(C)C)nn3)cc12 [Example 589, 4-(((R)-sec-butyl)amino)-8-chloro-6-(((S)-(1-isopropyl-1H-1,2,3-triazol-4-yl)(phenyl)methyl)amino)quinoline-3-carbonitrile] | 5.07 | 6.32 |
| CC[C@@H](C)Nc1c(C#N)cnc2c(Cl)cc(N[C@@H](c3ccccc3)c3cn(C4CCN(C(C)(C)C)CC4)nn3)cc12 [Example 590, 4-(((R)-sec-butyl)amino)-6-(((S)-(1-(1-(tert-butyl)piperidin-4-yl)-1H-1,2,3-triazol-4-yl)(phenyl)methyl)amino)-8-chloroquinoline-3-carbonitrile] | 5.45 | 6.88 |
| CC(C)n1cc([C@@H](Nc2cc(Cl)c3ncc(C#N)c(Nc4cccc(Cl)c4F)c3c2)c2ccccc2)nn1 [Example 591, (S)-8-chloro-4-((3-chloro-2-fluorophenyl)amino)-6-(((1-isopropyl-1H-1,2,3-triazol-4-yl)(phenyl)methyl)amino) quinoline-3-carbonitrile] | 6.15 | 7.57 |
| CC[C@@H](Nc1c(C#N)cnc2c(Cl)cc(N[C@@H](c3ccccc3)c3cn(C(C)C)nn3)cc12)c1ccccc1 [Example 592, 8-chloro-6-(((S)-(1-isopropyl-1H-1,2,3-triazol-4-yl)(phenyl)methyl)amino)-4-(((R)-1-phenylpropyl)amino)quinoline-3-carbonitrile] | 6.45 | 8.15 |
| CC1CCN1C(=O)c1cccc([C@H](Nc2cc(Cl)c3ncc(C#N)c(Nc4ccc(F)c(Cl)c4)c3c2)c2cn(C3CCN(C(C)(C)C)CC3)nn2)c1 (stereo partly drawn) [Example 593, 6-(((1S)-(1-(1-(tert-butyl)piperidin-4-yl)-1H-1,2,3-triazol-4-yl)(3-(2-methylazetidine-1-carbonyl)phenyl)methyl)amino)-8-chloro-4-((3-chloro-4-fluorophenyl)amino)quinoline-3-carbonitrile] | 6.83 | 9.00 |
| CC(C)(C)N1CCC(n2cc([C@@H](Nc3cc(Cl)c4ncc(C#N)c(Nc5ccc(F)c(Cl)c5)c4c3)c3cccc(C(=O)N4CC(O)C4)c3)nn2)CC1 [Example 594, (S)-6-(((1-(1-(tert-butyl)piperidin-4-yl)-1H-1,2,3-triazol-4-yl)(3-(3-hydroxyazetidine-1-carbonyl)phenyl)methyl)amino)-8-chloro-4-((3-chloro-4-fluorophenyl)amino)quinoline-3-carbonitrile] | 5.77 | 9.00 |
| CN(C)c1cccc([C@H](Nc2cc(Cl)c3ncc(C#N)c(Nc4ccc(F)c(Cl)c4)c3c2)c2cn(C3CCN(C(C)(C)C)CC3)nn2)c1 [Example 595, (S)-6-(((1-(1-(tert-butyl)piperidin-4-yl)-1H-1,2,3-triazol-4-yl)(3-(dimethylamino)phenyl)methyl)amino)-8-chloro-4-((3-chloro-4-fluorophenyl)amino)quinoline-3-carbonitrile] | 6.52 | 8.10 |
| CC(C)(C)N1CCC(n2cc([C@@H](Nc3cc(Cl)c4ncc(C#N)c(NC5CC6CCC5C6)c4c3)c3ccccc3)nn2)CC1 (stereo partly drawn) [Example 596, 4-(bicyclo[2.2.1]heptan-2-ylamino)-6-(((S)-(1-(1-(tert-butyl)piperidin-4-yl)-1H-1,2,3-triazol-4-yl)(phenyl)methyl)amino)-8-chloroquinoline-3-carbonitrile] | 5.52 | 7.48 |

Source: patent US10316017B2, “COT modulators and methods of use thereof” (Gilead Sciences, Inc., priority 2015, dated 2019)
